Paper PMC6094398, “New tools for evaluating protein tyrosine sulfation: tyrosylprotein sulfotransferases (TPSTs) are novel targets for RAF protein kinase inhibitors” (Biochemical Journal, 2018)
Several values for one entry are separate records, joined by “and”; a condition that tells them apart may be missing. Equal values may be shown once. Read-outs that look alike come from different tables or passages of the source. Each block holds one molecule with its values, some of them ahead of it.

Tests used:
human TPST1 [1] = molecular target: T1, human TPST1 (Homo sapiens, UniProt O60507); test: EZ Reader II microfluidic mobility-shift CC4-tide sulfation assay, TPST1; format: biochemical; conditions: for inhibition at 20 µM: read-out: TPST1 enzyme inhibition, PKIS screen; for Sensitivity of TPST1 inhibition to the concentration of PAPS: increasing PAPS, fixed 20 µM PAP or 100 µM ATP, CoA, dephospho-CoA; for IC50 / TPST1 inhibition at 400 μM: 10 µM PAPS; for TPST1 inhibition at 400 μM: Fig 8A, TPST1 0.1 µM, inhibitor 400 µM, duplicate
T1 construct: human TPST1 (residues Lys43–Leu360) and TPST2 (residues Gly43–Leu359) enzymes lacking the transmembrane domains; made in house; host or cells: E. coli BL21 (DE3) pLysS
T1 sequence (O60507 43-360): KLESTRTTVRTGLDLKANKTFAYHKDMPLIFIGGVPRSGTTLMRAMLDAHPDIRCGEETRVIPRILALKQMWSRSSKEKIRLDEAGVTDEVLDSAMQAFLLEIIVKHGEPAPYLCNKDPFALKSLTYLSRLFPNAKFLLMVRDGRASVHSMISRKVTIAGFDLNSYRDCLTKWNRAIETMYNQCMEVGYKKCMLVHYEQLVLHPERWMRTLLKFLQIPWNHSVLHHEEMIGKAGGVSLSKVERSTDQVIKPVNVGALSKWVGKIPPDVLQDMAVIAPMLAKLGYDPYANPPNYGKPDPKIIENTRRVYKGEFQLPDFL

human TPST1 [2] = molecular target: T1, human TPST1; test: Differential scanning fluorimetry (thermal shift) assay with TPST1; format: binding; conditions: DSF, TPST1 5 µM, 0.5 mM nucleotide; for Thermal shift of TPST1 (in words): panel of nucleotide-based cofactors; for ΔTm TPST1: relative to buffer control
human TPST2 = molecular target: T2, human TPST2 (Homo sapiens, UniProt O60704); test: Differential scanning fluorimetry (thermal shift) assay with TPST2; format: binding; conditions: DSF, TPST2 5 µM, 0.5 mM nucleotide; for Thermal shift of TPST2 (in words): panel of nucleotide-based cofactors
T2 construct: TPST2 (residues Gly43–Leu359) enzymes lacking the transmembrane domains; made in house; host or cells: E. coli BL21 (DE3) pLysS
T2 sequence (O60704 43-359): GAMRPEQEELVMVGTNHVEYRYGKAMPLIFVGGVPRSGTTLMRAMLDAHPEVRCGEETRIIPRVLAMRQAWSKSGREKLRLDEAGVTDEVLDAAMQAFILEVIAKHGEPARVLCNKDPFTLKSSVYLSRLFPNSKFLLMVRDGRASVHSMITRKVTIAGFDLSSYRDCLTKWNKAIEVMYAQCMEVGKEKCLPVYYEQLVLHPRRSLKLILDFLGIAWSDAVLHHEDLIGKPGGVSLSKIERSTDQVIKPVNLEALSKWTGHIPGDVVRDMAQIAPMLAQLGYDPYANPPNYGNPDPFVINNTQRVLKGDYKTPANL

TPST2 = conditions: cited from earlier work
TPST1 = conditions: read-out: Km for PAPS, TPST1, literature reports; cited from earlier work
human TPST1 [3] = molecular target: T1, human TPST1; test: GST-CC4-tide tyrosine sulfation by TPST1, immunoblotting with monoclonal sulfotyrosine antibody; format: biochemical
Description: After the assay, proteins were denatured in Laemmli sample buffer, heated at 95°C for 5 min and then analysed by SDS–PAGE with 10% (v/v) polyacrylamide gels. Gels were stained and destained using a standard Coomassie Brilliant Blue protocol. To evaluate protein sulfation and phosphorylation by immunoblotting, standard western blotting procedures were followed using monoclonal anti-sulfotyrosine antibody clone Sulfo-1C-A2 (Millipore) generated using a phage display procedure and sulfotyrosine selection peptide antigens in the presence of appropriate positive and negative controls, and modifications visualised using the ECL reagent.

[4] = tested on: heparin sulfate 2-O sulfotransferase HS2ST; parameters: method as in PMID 29934491; conditions: cited from earlier work
[5] = substrate: Nc1ncnc2c1ncn2C1OC(COP(=O)(O)OS(=O)(=O)O)C(OP(=O)(O)O)C1O; test: EZ Reader II microfluidic mobility-shift CC4-tide sulfation assay, TPST1; format: biochemical, human; conditions: other: CC4-tide 2 µM, TPST1 0.1 µM, four independent experiments; pH 7.4
[6] = Fig 5A, CC4-tide, 0.1 µM TPST1, absence of MgCl2, read-out: IC50 TPST1, panel of nucleotides
[7] = Fig 8B, TPST1 0.1 µM pre-incubated with compound, read-out: TPST1 estimated IC50, RAF kinase inhibitors

Molecule: CNC(=O)c1cncc(/C=C/c2ccccc2Cl)c1 [GW445017X]
inhibition at 20 µM (human TPST1 [1]): > 40%

Molecule: Cc1cc(-c2ccco2)cc(C)c1/C=C/c1cncc(-c2nn[nH]n2)c1 [GW458344A]
inhibition at 20 µM (human TPST1 [1]): > 40%

Molecule: Nc1ncnc2c1ncn2C1OC(COP(=O)(O)O)C(OP(=O)(O)O)C1O (centres unmarked) [PAP, adenosine 3′–5′-diphosphate]
Thermal shift of TPST1 (in words) (human TPST1 [2]): marked stabilisation
ΔTm TPST1 (human TPST1 [2]): ~10 °C
Thermal shift of TPST2 (in words) (human TPST2): marked stabilisation
Sensitivity of TPST1 inhibition to the concentration of PAPS (human TPST1 [1]; CC4-tide): highly sensitive
IC50 (human TPST1 [1]; [6]): 1.5 µM

Molecule: Nc1ncnc2c1ncn2C1OC(COP(=O)(O)OS(=O)(=O)O)C(OP(=O)(O)O)C1O (centres unmarked) [PAPS, adenosine 3′-phosphate 5′-phosphosulfate]
ΔTm TPST1 (human TPST1 [2]): ~3 °C
ΔTm TPST2 (human TPST2; relative to buffer control): ~9 °C
Km (TPST2; read-out: Km for PAPS, TPST2 obtained from transfected CHO cell medium): 12 µM
Km (TPST2; read-out: Km for PAPS, recombinant TPST2 isolated from baculovirus-infected insect cells): ~5 µM
Km (TPST1): 2 to 5 µM

Molecule: Cc1ccc(C(=O)Nc2ccc(S(=O)(=O)O)c3cc(S(=O)(=O)O)cc(S(=O)(=O)O)c23)cc1NC(=O)c1cccc(NC(=O)Nc2cccc(C(=O)Nc3cc(C(=O)Nc4ccc(S(=O)(=O)O)c5cc(S(=O)(=O)O)cc(S(=O)(=O)O)c45)ccc3C)c2)c1 [Suramin, suramin]
HS2ST inhibition in vitro (in words) [4]: inhibitory activity

B1: human TPST1 (Homo sapiens) (protein)
chain: KLESTRTTVRTGLDLKANKTFAYHKDMPLIFIGGVPRSGTTLMRAMLDAHPDIRCGEETRVIPRILALKQMWSRSSKEKIRLDEAGVTDEVLDSAMQAFLLEIIVKHGEPAPYLCNKDPFALKSLTYLSRLFPNAKFLLMVRDGRASVHSMISRKVTIAGFDLNSYRDCLTKWNRAIETMYNQCMEVGYKKCMLVHYEQLVLHPERWMRTLLKFLQIPWNHSVLHHEEMIGKAGGVSLSKVERSTDQVIKPVNVGALSKWVGKIPPDVLQDMAVIAPMLAKLGYDPYANPPNYGKPDPKIIENTRRVYKGEFQLPDFL
notes: human TPST1 (residues Lys43–Leu360) and TPST2 (residues Gly43–Leu359) enzymes lacking the transmembrane domains; made in house; host or cells: E. coli BL21 (DE3) pLysS
Km [5]: 6.6 ± 1.9 µM

Second part, led by results:

IC50 (human TPST1 [1]; [7]): > 400 µM
Molecule: CCCS(=O)(=O)Nc1ccc(F)c(C(=O)c2c[nH]c3ncc(Cl)cc23)c1F [PLX-4720]

TPST1 inhibition at 400 μM (human TPST1 [1]): essentially complete TPST1 inhibition
IC50 (human TPST1 [1]; [7]): 6.5 µM
Inhibition of GST-CC4-tide tyrosine sulfation by TPST1 (immunoblot, in words) (human TPST1 [3]; GST-CC4-tide 1 µg, 10 µM PAPS, increasing concentrations of inhibitor): dose-dependent inhibition
Molecule: Cn1c(Nc2ccc(C(F)(F)F)cc2)nc2cc(Oc3ccnc(-c4ncc(C(F)(F)F)[nH]4)c3)ccc21 [RAF265]
Mode of TPST1 inhibition with respect to PAPS (immunoblot densitometry) (human TPST1 [3]; GST-CC4-tide, increasing PAPS concentration): partially competitive mode of inhibition with PAPS
HS2ST inhibition in vitro (in words) [4]: did not inhibit HS2ST at any concentration tested

TPST1 inhibition at 400 μM (human TPST1 [1]): essentially complete TPST1 inhibition
IC50 (human TPST1 [1]; [7]): 119 µM
Molecule: CNC(=O)c1cc(Oc2ccc(NC(=O)Nc3ccc(Cl)c(C(F)(F)F)c3)cc2)ccn1 [Sorafenib, sorafenib]

TPST1 inhibition at 400 μM (human TPST1 [1]): essentially complete TPST1 inhibition
IC50 (human TPST1 [1]; [7]): 42.9 µM and ~40 µM
Molecule: CCCS(=O)(=O)Nc1ccc(F)c(C(=O)c2c[nH]c3ncc(-c4ccc(Cl)cc4)cc23)c1F [Vemurafenib, vemurafenib]

TPST1 inhibition at 400 μM (human TPST1 [1]): essentially complete TPST1 inhibition
IC50 (human TPST1 [1]; [7]): 253 µM
Molecule: Cc1ccc(NC(=O)c2cccc(N(C)C)c2)cc1NC(=O)c1ccc(O)cc1 [ZM336372]

Thermal shift of TPST1 (in words) (human TPST1 [2]): marked stabilisation
Thermal shift of TPST2 (in words) (human TPST2): marked stabilisation
Molecule: CC(=O)SCCNC(=O)CCNC(=O)[C@H](O)C(C)(C)COP(=O)(O)OP(=O)(O)OC[C@H]1O[C@@H](n2cnc3c(N)ncnc32)[C@H](O)[C@@H]1OP(=O)(O)O [acetyl CoA]

Thermal shift of TPST1 (in words) (human TPST1 [2]): unable to induce thermal shifts
Thermal shift of TPST2 (in words) (human TPST2): unable to induce thermal shifts
Sensitivity of TPST1 inhibition to the concentration of PAPS (human TPST1 [1]; CC4-tide): largely insensitive
IC50 (human TPST1 [1]; [6]): 166 µM
Molecule: CC(C)(COP(=O)(O)OP(=O)(O)OC[C@H]1O[C@@H](n2cnc3c(N)ncnc32)[C@H](O)[C@@H]1O)[C@@H](O)C(=O)NCCC(=O)NCCS [dephospho-CoA, 3′-dephosphoCoA]
